Assay results taken from ChEMBL document CHEMBL1201862, “PubChem BioAssay data set” (2004).
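1) Cells in 96-well plates. 2) Compound, 48 h, 5 concentrations. 3) Linear interpolation between surrounding doses. 4) Unreached endpoint = highest concentration. Abbreviation: GI50, concentration required for 50% inhibition of growth.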 The source made the active and inactive calls. Rule as the data show it: active = GI50 up to about 1.1 µM and inactive = higher.

Assays:
Assay in all cases: NCI anticancer screen, dose series, 48 h
786-0 = system: 786-0
A549 = system: A549
ACHN = system: ACHN
CAKI-1 = system: CAKI-1
HL-60 = system: HL-60
HOP-62 = system: HOP-62
IGROV-1 = system: IGROV-1
K562 = system: K562
LOX IMVI = system: LOX IMVI
M14 = system: M14
Malme-3M = system: Malme-3M
NCI-H23 = system: NCI-H23
NCI-H522 = system: NCI-H522
NCI/ADR-RES = system: NCI/ADR-RES
RPMI-8226 = system: RPMI-8226
SN12C = system: SN12C
TK-10 = system: TK-10
UACC-257 = system: UACC-257
UACC-62 = system: UACC-62
UO-31 = system: UO-31

Measured: GI50

CN(CC(=O)N1CC(CCl)c2ccc([N+](=O)[O-])cc21)CC(=O)N1CC(CCl)c2ccc([N+](=O)[O-])cc21 (stereo not given)
inactive: 786-0 > 100 µM | A549 > 100 µM | ACHN > 100 µM | CAKI-1 > 100 µM | HL-60 > 100 µM | HOP-62 > 100 µM | IGROV-1 34.9 µM | K562 > 100 µM | LOX IMVI > 100 µM | M14 > 100 µM | Malme-3M > 100 µM | NCI-H23 > 100 µM | NCI-H522 7.73 µM | NCI/ADR-RES > 100 µM | RPMI-8226 95.9 µM | SN12C > 100 µM | TK-10 > 100 µM | UACC-257 > 100 µM | UACC-62 > 100 µM | UO-31 > 100 µM

NC1(c2cc3ccccc3s2)CCCC1
inactive: 786-0 54.2 µM | A549 90.6 µM | ACHN 86.5 µM | CAKI-1 > 100 µM | HL-60 18.3 µM | HOP-62 > 100 µM | IGROV-1 > 100 µM | K562 25.2 µM | LOX IMVI 36.5 µM | M14 25.5 µM | Malme-3M 36.9 µM | NCI-H23 > 100 µM | NCI-H522 92.5 µM | NCI/ADR-RES 78.9 µM | RPMI-8226 17.7 µM | SN12C 57.5 µM | TK-10 34.1 µM | UACC-257 31 µM | UACC-62 50.4 µM | UO-31 69.2 µM

Nc1nc(Cl)c2ncn(Cc3ccc(CCl)cc3)c2n1
inactive: 786-0 5.31 µM | A549 15.7 µM | ACHN 9.62 µM | CAKI-1 2.49 µM | HL-60 6.81 µM | HOP-62 6.85 µM | IGROV-1 9.23 µM | K562 3.61 µM | LOX IMVI 5.41 µM | M14 14 µM | Malme-3M 11.3 µM | NCI-H23 12 µM | NCI-H522 10.7 µM | NCI/ADR-RES 3.33 µM | RPMI-8226 3.83 µM | SN12C 12.2 µM | TK-10 16.6 µM | UACC-257 12.5 µM | UACC-62 2.23 µM | UO-31 11.9 µM

N#Cc1c(C#N)c(SSc2c(C#N)c(C#N)c(N)n2-c2ccc(F)cc2)n(-c2ccc(F)cc2)c1N
inactive: 786-0 1.79 µM | A549 18.9 µM | ACHN 3.66 µM | CAKI-1 8.17 µM | HL-60 2 µM | HOP-62 17.8 µM | IGROV-1 16.7 µM | K562 1.76 µM | LOX IMVI 26.4 µM | M14 4.8 µM | Malme-3M 1.87 µM | NCI-H23 6.73 µM | NCI-H522 1.7 µM | NCI/ADR-RES 24.3 µM | RPMI-8226 2.37 µM | SN12C 16.6 µM | TK-10 3.9 µM | UACC-257 5.93 µM | UACC-62 16.9 µM | UO-31 2.06 µM

COc1ccc([C@H]2CC(=O)C[C@H](c3ccc(OC)cc3OC)C23C(=O)c2ccccc2C3=O)c(OC)c1
inactive: 786-0 > 100 µM | A549 > 100 µM | ACHN > 100 µM | CAKI-1 > 100 µM | HL-60 > 100 µM | HOP-62 > 100 µM | IGROV-1 > 100 µM | K562 > 100 µM | LOX IMVI 65 µM | M14 > 100 µM | Malme-3M > 100 µM | NCI-H23 > 100 µM | NCI-H522 > 100 µM | NCI/ADR-RES > 100 µM | RPMI-8226 > 100 µM | SN12C > 100 µM | TK-10 > 100 µM | UACC-257 > 100 µM | UACC-62 > 100 µM | UO-31 > 100 µM

C[N+]1(CCCC[N+]2(C)CCCCCCC2)CCCCCCC1
inactive: 786-0 > 100 µM | A549 > 100 µM | ACHN > 100 µM | CAKI-1 > 100 µM | HL-60 > 100 µM | HOP-62 > 100 µM | IGROV-1 > 100 µM | K562 > 100 µM | LOX IMVI > 100 µM | M14 > 100 µM | Malme-3M > 100 µM | NCI-H23 > 100 µM | NCI-H522 > 100 µM | NCI/ADR-RES > 100 µM | RPMI-8226 > 100 µM | SN12C > 100 µM | TK-10 > 100 µM | UACC-257 > 100 µM | UACC-62 > 100 µM | UO-31 > 100 µM

O=S(=O)(N/C(=N\O)Nc1ccc(Cl)cc1)c1cc(S(=O)(=O)c2ccccc2)cs1
inactive: 786-0 15.7 µM | A549 24 µM | ACHN 16.1 µM | CAKI-1 16.6 µM | HL-60 2.81 µM | HOP-62 17.5 µM | IGROV-1 17.9 µM | K562 10.4 µM | LOX IMVI 15.5 µM | M14 15.1 µM | Malme-3M 14.2 µM | NCI-H23 17.9 µM | NCI-H522 10.6 µM | NCI/ADR-RES 33.2 µM | RPMI-8226 7.87 µM | SN12C 15.2 µM | TK-10 19.2 µM | UACC-257 15.9 µM | UACC-62 14.8 µM | UO-31 14.3 µM
